pKd: −log10 of the molar value.
Target: T1, Rar1 (Arabidopsis thaliana, UniProt Q9SE33)
T1 sequence (Q9SE33 1-226): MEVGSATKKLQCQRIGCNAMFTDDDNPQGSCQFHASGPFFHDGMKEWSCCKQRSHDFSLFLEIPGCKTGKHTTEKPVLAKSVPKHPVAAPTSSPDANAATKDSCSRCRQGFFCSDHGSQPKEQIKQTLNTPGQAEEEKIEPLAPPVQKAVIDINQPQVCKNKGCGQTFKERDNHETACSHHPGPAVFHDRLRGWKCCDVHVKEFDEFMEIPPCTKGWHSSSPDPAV
Assay: near-UV CD titration, non-linear fit at […] nm
Conditions: 4 °C; 1:1 site; authors call it weak non-specific binding; apparent Kd

Nc1ncnc2c1ncn2[C@@H]1O[C@H](COP(=O)(O)OP(=O)(O)O)[C@@H](O)[C@H]1O [ADP]
pKd: 2.70

— paper PMC5776081, “The Stoichiometric Interaction of the Hsp90-Sgt1-Rar1 Complex by CD and SRCD Spectroscopy” (Frontiers in Molecular Biosciences, 2018)
